Seven compounds from US7491819B1 (priority 2004, dated 2009) can be followed below.

This assay relates to HIV-1 303B. The assay is described as follows: microbe, parasite or virus in culture. The settings on record: for EC50: Human immunodeficiency virus 1, MT2, 120 h; for overall antiviral effect of the two-drug combination with Example 19 (in words): classification from combination indices and confidence intervals; for Combination Indices at 50% HIV Inhibition (Confidence Interval) / Combination Indices at 75% HIV Inhibition (Confidence Interval) / Combination Indices at 90% HIV Inhibition (Confidence Interval): in combination with Example 19, 95% CI in parenthesis. It is filed as cell-based. As for the experimental part: Virus and cell lines. The T-cell line, MT-2, was obtained through the AIDS Research and Reference Reagent Program. MT-2 cells were sub-cultured twice a week in RPMI 1640 medium supplemented with 10% fetal bovine serum, 2 mM L-glutamine, and 10 mM HEPES buffer pH 7.5. The HIV-1303B virus is a molecular clone derived from the NL4-3 strain of HIV-1 that was obtained from the NIH AIDS Research and Reference Reagent Program. For combinations with enfuvirtide, the NL36G virus was used. […] Virus stocks were made by transfecting 293T cells with a proviral DNA clone using LipofectAMINE PLUS (Invitrogen), according to the manufacturer's instructions. Three days post-transfection, virus was harvested and passaged once in MT-2 cells before titration in MT-2 cells.
Chemicals. Example 19, atazanavir, didanosine, stavudine, efavirenz, and enfuvirtide (T-20) were synthesized by Bristol-Myers Squibb using published or known reactions. […] Tenofovir was tested as tenofovir disopoxil fumarate. Zidovudine and zalcitabine were purchased from Sigma, and emtricitabine from Moravek Biochemicals.
Drug Susceptibility and Cytotoxicity Assays. For drug susceptibility assays, MT-2 cells were infected with HIV-1 303B (or NL36G), at an MOI of 0.001, and seeded into 96-well microtiter plates (2.5×10^5 cells/ml) containing serial dilutions of test compounds. […] Each drug ratio consisted of an array of 3-fold serial dilutions, and was performed with eight or more replicas on separate multi-well plates. HIV infected cells were incubated at 37° C. in 5% CO2, and on day five post-infection, the extent of virus replication was measured by determining cell viability using the CellTiter 96 Aqueous Non-Radioactive Cell Proliferation Assay (Promega). […] Cytotoxicity assays were performed in parallel with the combination experiments. Here, uninfected cells were exposed to the same drug combinations, and assayed after five days for cell viability using the MTS assay.
Analysis of Drug Combination Effects. For determination of combination index (CI) values, drugs were diluted in a fixed ratio and multiple ratios were analyzed. The drug serial dilutions spanned a range of concentrations near the EC50 value of each compound, so that equivalent antiviral activities could be compared. The normalized responses from each therapy are fit to the four-parameter logistic model with a common minimum and maximum across all therapies. Conceptually, this equation can be written as
In this equation, Fa stands for “fraction affected,” and represents the fraction of the viral load that has been inactivated. […] The EC50, represented by the Ci in the above equation, is the drug concentration that is expected to reduce the amount of virus by 50%, and the Bi are the parameters that reflects the slope of the concentration-response curve. For this assay, A is the bottom plateau common to all curves, D is the common top plateau, Bj is the “slope” parameter for the jth therapy, and Cj is the concentration that produces an effect equal to the average of A and D for the jth therapy. Therapies 1 and 2 correspond to mono therapies 1 and 2, respectively. Therapies 3, 4, and 5 correspond to the three combination therapies. EC50 values for each drug were determined from the single drug experiments, using the above equation. The equation was fit using a nonlinear regression routine (Proc Nlin) in PC SAS version 8.2 (SAS Institute Inc.).
To assess antiviral effects of different drug combination treatments, combination indices (CIs) were calculated according to Chou and Rideout. The combination index was computed as
In this equation [Dm]1 and [Dm]2 are the concentrations of drugs that would individually produce a specific level of effect, while [D]1 and [D]2 are the concentrations of drugs in combination that would produce the same level of effect.
Theoretically, additivity is implied if the CI is equal to one, synergy if the CI is less than one, and antagonism if the CI is greater than one.

Setting [1] is: EC50 ratio Example 19:comparator 1:1.
Setting [2] is: EC50 ratio Example 19:comparator 1:2.5.
Where [3] appears, read: EC50 ratio Example 19:comparator 2.5:1.

A word on the EC50: it is the concentration giving half of the maximal effect.

With `CC(C)(C)NC(=O)[C@@H]1CN(Cc2cccnc2)CCN1C[C@@H](O)C[C@@H](Cc1ccccc1)C(=O)N[C@H]1c2ccccc2C[C@H]1O` [Indinavir, indinavir], the EC50 worked out at 0.026 µM and the “overall antiviral effect of the two-drug combination with Example 19 (in words)” value (shortened to “overall antiviral effect”) was “additive relationship with Example 19 cannot be ruled out”. Under setting [1], the “Combination Indices at 50% HIV Inhibition (Confidence Interval)” value is 0.86 (0.80, 0.92); the “Combination Indices at 75% HIV Inhibition (Confidence Interval)” value is recorded as 0.71 (0.62, 0.81); the “Combination Indices at 90% HIV Inhibition (Confidence Interval)” value is reported as 0.60 (0.46, 0.73). Further, under setting [2], the “Combination Indices at 50% HIV Inhibition (Confidence Interval)” value was 0.92 (0.84, 0.99); the “Combination Indices at 75% HIV Inhibition (Confidence Interval)” value is listed as 0.84 (0.76, 0.92); the “Combination Indices at 90% HIV Inhibition (Confidence Interval)” value is given as 0.77 (0.66, 0.89). Under setting [3], the “Combination Indices at 50% HIV Inhibition (Confidence Interval)” value is given as 0.94 (0.87, 1.02); the “Combination Indices at 75% HIV Inhibition (Confidence Interval)” value is on record as 0.79 (0.71, 0.87); the “Combination Indices at 90% HIV Inhibition (Confidence Interval)” value is given as 0.67 (0.57, 0.77).
On to `Cc1cccc(C)c1OCC(=O)N[C@@H](Cc1ccccc1)[C@@H](O)C[C@H](Cc1ccccc1)NC(=O)[C@H](C(C)C)N1CCCNC1=O` [Lopinavir, lopinavir], for which the EC50 was 0.017 µM and the “overall antiviral effect” value is “additive relationship with Example 19 cannot be ruled out”. Moreover, under setting [1], the “Combination Indices at 50% HIV Inhibition (Confidence Interval)” value is 0.74 (0.67, 0.82) and the “Combination Indices at 75% HIV Inhibition (Confidence Interval)” value is listed as 0.77 (0.66, 0.88). Also, under setting [2], the “Combination Indices at 50% HIV Inhibition (Confidence Interval)” value is recorded as 0.77 (0.66, 0.88); the “Combination Indices at 75% HIV Inhibition (Confidence Interval)” value is reported as 0.56 (0.36, 0.75); the “Combination Indices at 90% HIV Inhibition (Confidence Interval)” value is recorded as 0.41 (0.19, 0.64). Further, under setting [3], the “Combination Indices at 50% HIV Inhibition (Confidence Interval)” value is 0.76 (0.69, 0.83); the “Combination Indices at 75% HIV Inhibition (Confidence Interval)” value was 0.62 (0.55, 0.70); the “Combination Indices at 90% HIV Inhibition (Confidence Interval)” value is 0.54 (0.47, 0.61).
Consider `Cc1c(O)cccc1C(=O)N[C@@H](CSc1ccccc1)[C@H](O)CN1C[C@H]2CCCC[C@H]2C[C@H]1C(=O)NC(C)(C)C` [Nelfinavir, nelfinavir], for which the EC50 came to 0.022 µM and the “overall antiviral effect” value was “synergistic-additive effect”. Moreover, under setting [1], the “Combination Indices at 50% HIV Inhibition (Confidence Interval)” value is listed as 0.79 (0.73, 0.86); the “Combination Indices at 75% HIV Inhibition (Confidence Interval)” value was 0.75 (0.67, 0.82); the “Combination Indices at 90% HIV Inhibition (Confidence Interval)” value was 0.71 (0.56, 0.84). Under setting [2], the “Combination Indices at 50% HIV Inhibition (Confidence Interval)” value is recorded as 0.97 (0.89, 1.06); the “Combination Indices at 75% HIV Inhibition (Confidence Interval)” value is recorded as 0.87 (0.79, 0.95); the “Combination Indices at 90% HIV Inhibition (Confidence Interval)” value is reported as 0.78 (0.68, 0.88). In addition, under setting [3], the “Combination Indices at 50% HIV Inhibition (Confidence Interval)” value was 1.09 (1.00, 1.18); the “Combination Indices at 75% HIV Inhibition (Confidence Interval)” value is 0.98 (0.89, 1.08); the “Combination Indices at 90% HIV Inhibition (Confidence Interval)” value was 0.90 (0.76, 1.03).
Turning to `Cc1ccnc2c1NC(=O)c1cccnc1N2C1CC1` [Nevirapine, nevirapine], the half-maximal effective concentration (EC50) was determined as 0.095 µM; the “overall antiviral effect” value is “synergism at most effective concentrations and molar ratios”. In addition, under “listed as nevaripine”, the “overall antiviral effect” value is “strong synergistic effects”. In addition, under setting [1], the “Combination Indices at 50% HIV Inhibition (Confidence Interval)” value is given as 0.72 (0.62, 0.82); the “Combination Indices at 75% HIV Inhibition (Confidence Interval)” value is given as 0.69 (0.55, 0.83); the “Combination Indices at 90% HIV Inhibition (Confidence Interval)” value is recorded as 0.66 (0.46, 0.87). Also, under setting [2], the “Combination Indices at 50% HIV Inhibition (Confidence Interval)” value is on record as 0.76 (0.64, 0.87); the “Combination Indices at 75% HIV Inhibition (Confidence Interval)” value is recorded as 0.81 (0.64, 0.97); the “Combination Indices at 90% HIV Inhibition (Confidence Interval)” value was 0.87 (0.59, 1.15). Also, under setting [3], the “Combination Indices at 50% HIV Inhibition (Confidence Interval)” value was 0.73 (0.62, 0.83); the “Combination Indices at 75% HIV Inhibition (Confidence Interval)” value is given as 0.68 (0.55, 0.81); the “Combination Indices at 90% HIV Inhibition (Confidence Interval)” value was 0.64 (0.45, 0.84).
With `CC(C)c1nc(CN(C)C(=O)N[C@H](C(=O)N[C@@H](Cc2ccccc2)C[C@H](O)[C@H](Cc2ccccc2)NC(=O)OCc2cncs2)C(C)C)cs1` [Ritonavir, ritonavir], the EC50 came to 0.048 µM and the “overall antiviral effect” value is given as “additive relationship with Example 19 cannot be ruled out”. Moreover, under setting [1], the “Combination Indices at 50% HIV Inhibition (Confidence Interval)” value was 0.80 (0.67, 0.93); the “Combination Indices at 75% HIV Inhibition (Confidence Interval)” value was 0.57 (0.41, 0.73); the “Combination Indices at 90% HIV Inhibition (Confidence Interval)” value was 0.44 (0.23, 0.65). Also, under setting [2], the “Combination Indices at 50% HIV Inhibition (Confidence Interval)” value is recorded as 0.73 (0.59, 0.88); the “Combination Indices at 75% HIV Inhibition (Confidence Interval)” value is recorded as 0.64 (0.48, 0.80); the “Combination Indices at 90% HIV Inhibition (Confidence Interval)” value was 0.61 (0.38, 0.85). In addition, under setting [3], the “Combination Indices at 50% HIV Inhibition (Confidence Interval)” value is 0.92 (0.72, 1.11); the “Combination Indices at 75% HIV Inhibition (Confidence Interval)” value was 0.72 (0.50, 0.93); the “Combination Indices at 90% HIV Inhibition (Confidence Interval)” value is 0.59 (0.32, 0.87).
With `CC(C)(C)NC(=O)[C@@H]1C[C@@H]2CCCC[C@@H]2CN1C[C@@H](O)[C@H](Cc1ccccc1)NC(=O)[C@H](CC(N)=O)NC(=O)c1ccc2ccccc2n1` [Saquinavir, saquinavir], the concentration giving a half-maximal response (EC50) is 0.011 µM; the “overall antiviral effect” value was “confidence interval is below one at all concentrations and effective levels”. In addition, under setting [1], the “Combination Indices at 50% HIV Inhibition (Confidence Interval)” value is listed as 0.77 (0.70, 0.84); the “Combination Indices at 75% HIV Inhibition (Confidence Interval)” value was 0.67 (0.58, 0.75); the “Combination Indices at 90% HIV Inhibition (Confidence Interval)” value is reported as 0.58 (0.47, 0.69). Under setting [2], the “Combination Indices at 50% HIV Inhibition (Confidence Interval)” value is listed as 0.43 (0.38, 0.48); the “Combination Indices at 75% HIV Inhibition (Confidence Interval)” value is 0.51 (0.42, 0.59); the “Combination Indices at 90% HIV Inhibition (Confidence Interval)” value is 0.59 (0.44, 0.74). In addition, under setting [3], the “Combination Indices at 50% HIV Inhibition (Confidence Interval)” value is 0.81 (0.72, 0.89); the “Combination Indices at 75% HIV Inhibition (Confidence Interval)” value is recorded as 0.77 (0.66, 0.89); the “Combination Indices at 90% HIV Inhibition (Confidence Interval)” value is reported as 0.74 (0.57, 0.91).
As to `Cc1cn([C@H]2C=C[C@@H](CO)O2)c(=O)[nH]c1=O` [Stavudine, stavudine], the EC50 came out at 0.241 µM and the “overall antiviral effect” value is listed as “synergistic”. Under setting [1], the “Combination Indices at 50% HIV Inhibition (Confidence Interval)” value is on record as 0.52 (0.43, 0.61); the “Combination Indices at 75% HIV Inhibition (Confidence Interval)” value was 0.46 (0.36, 0.56); the “Combination Indices at 90% HIV Inhibition (Confidence Interval)” value was 0.42 (0.26, 0.57). Moreover, under setting [2], the “Combination Indices at 50% HIV Inhibition (Confidence Interval)” value was 0.60 (0.48, 0.71); the “Combination Indices at 75% HIV Inhibition (Confidence Interval)” value is on record as 0.60 (0.46, 0.74); the “Combination Indices at 90% HIV Inhibition (Confidence Interval)” value is 0.61 (0.40, 0.83). Also, under setting [3], the “Combination Indices at 50% HIV Inhibition (Confidence Interval)” value is listed as 0.70 (0.57, 0.84); the “Combination Indices at 75% HIV Inhibition (Confidence Interval)” value is recorded as 0.63 (0.48, 0.79); the “Combination Indices at 90% HIV Inhibition (Confidence Interval)” value is 0.58 (0.37, 0.81).
